Tests used:
[1] = for speed of sound / mass density / viscosity: 101.33 kPa, Liquid; for speed of sound: Single path-length method; for mass density: Vibrating tube method; for viscosity: Capillary tube (Ostwald / Ubbelohde) method
[2] = isobaric coefficient of expansion; settings: 298.15 K; 101.33 kPa; Liquid; Curve Fitting Density Data
[3] = refractive index (Na D-line) (dimensionless); settings: 101.33 kPa, Liquid, Standard Abbe refractometry

CCCC[N+]1(C)CCCC1.O=S(=O)([N-]S(=O)(=O)C(F)(F)F)C(F)(F)F
Settings | mass density, [1] [kg/m3] | refractive index, [3] | speed of sound, [1] [m/s] | viscosity, [1] [mPa·s]
278.15 K | 1412.36 | – | 1316 | –
283.15 K | 1407.86 | 1.42717 | 1303 | –
288.15 K | 1403.45 | 1.42573 | 1291 | –
293.15 K | 1399.02 | 1.4243 | 1280 | 98.07
298.15 K | 1394.59 | 1.42304 | 1269 | 76.92
303.15 K | 1390.2 | 1.42164 | 1258 | 61.47
308.15 K | 1385.8 | 1.42021 | 1247 | 49.94
313.15 K | 1381.42 | 1.41878 | 1236 | 41.22
318.15 K | 1377.04 | 1.41736 | 1225 | 34.32
323.15 K | 1372.69 | 1.41588 | 1214 | 28.95
328.15 K | 1368.35 | 1.41447 | 1204 | 24.68
333.15 K | 1364.02 | 1.413 | 1193 | 21.23
338.15 K | 1359.71 | 1.4116 | 1183 | 18.42
343.15 K | 1355.41 | 1.4102 | 1173 | 16.12

Settings | Normal melting temperature [°C]
[1], Crystal, visual observation | -8.00

Settings | isobaric coefficient of expansion
[2] | 0.000633 1/K

CCCCCCCCCCCCCC[P+](CCCCCC)(CCCCCC)CCCCCC.N#C[N-]C#N [tetradecyl(trihexyl)phosphonium dicyanamide]
Settings | mass density, [1] [kg/m3] | refractive index, [3] | speed of sound, [1] [m/s] | viscosity, [1] [mPa·s]
278.15 K | 910.72 | – | 1599 | –
283.15 K | 907.58 | 1.48826 | 1579 | –
288.15 K | 904.66 | 1.48667 | 1561 | –
293.15 K | 901.76 | 1.48502 | 1542 | 562.45
298.15 K | 898.86 | 1.48337 | 1526 | 418.33
303.15 K | 895.98 | 1.48174 | 1509 | 312.69
308.15 K | 893.09 | 1.48008 | 1493 | 239.97
313.15 K | 890.26 | 1.47843 | 1477 | 186.79
318.15 K | 887.46 | 1.47679 | 1462 | 145.95
323.15 K | 884.65 | 1.47516 | 1447 | 116.18
328.15 K | 881.83 | 1.47352 | 1432 | 93.8
333.15 K | 879.03 | 1.47189 | 1418 | 76.14
338.15 K | 876.22 | 1.47024 | 1404 | 62.63
343.15 K | 873.42 | 1.46848 | 1390 | 51.99

Settings | isobaric coefficient of expansion
[2] | 0.000642 1/K

From the NIST ThermoML archive (doi:10.1016/j.jct.2009.06.020)
